Source: PubChem BioAssay (NCI)
“And” between values parts separate entries of the source, which are not always exact repeats. Equal values may be shown once.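 Briefly, cells in 96-well plates were exposed to five compound concentrations for 48 h, and endpoints were estimated by linear interpolation. At the GI50, growth is halved. Definition used: TGI = concentration required for complete inhibition of growth.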

Legend:
Assay in all cases: growth of human tumour cells (NCI), 48 h
SK-MEL-2 melanoma = test system: SK-MEL-2 melanoma
U251 CNS = test system: U251 CNS
ACHN renal = test system: ACHN renal
HCT-116 colon = test system: HCT-116 colon
K-562 leukemia = test system: K-562 leukemia
SW-620 colon = test system: SW-620 colon
CCRF-CEM leukemia = test system: CCRF-CEM leukemia
MDA-MB-435 = test system: MDA-MB-435
KM12 colon = test system: KM12 colon
SNB-75 CNS = test system: SNB-75 CNS

Row | SMILES | TGI (SK-MEL-2 melanoma) [µM] | TGI (U251 CNS) [µM] | TGI (ACHN renal) | TGI (HCT-116 colon) [µM] | TGI (K-562 leukemia) [µM] | TGI (SW-620 colon) [µM] | TGI (CCRF-CEM leukemia) [µM] | TGI (MDA-MB-435) [µM] | TGI (KM12 colon) [µM] | TGI (SNB-75 CNS) [µM] | GI50 (SK-MEL-2 melanoma) [µM] | GI50 (U251 CNS) [µM] | GI50 (ACHN renal) | GI50 (HCT-116 colon) [µM] | GI50 (K-562 leukemia) [µM] | GI50 (SW-620 colon) | GI50 (CCRF-CEM leukemia) | GI50 (MDA-MB-435) | GI50 (KM12 colon) | GI50 (SNB-75 CNS) [µM]
1 | O=c1oc2cc(N=Cc3ccc4c(c3)OCO4)ccc2c2ccccc12 | > 100 | > 100 | > 100 µM | > 100 | > 100 | > 100 | > 100 | > 100 | > 100 | 39.7 | – | – | – | – | – | – | – | – | – | –
2 | CCN(CC)CCn1c2ccccc2c(=O)c2c(O)ccc(O)c21 | 50.4 | 74.1 | 57.8 µM | 58.6 | 68.5 | 31.5 | > 90.2 | 33.4 | > 74.8 | 49.5 | – | – | – | – | – | – | – | – | – | –
3 | C=C1C(=O)O[C@H]2[C@H](OC(C)=O)[C@@H](C)CCC/C(C)=C/CC[C@@]3(C)O[C@@H]3C[C@@H]12 | 19.5 | 21.7 | 3.4 µM | 6.83 | > 100 | > 23.1 | 3.76 | 15.1 | 18.8 | 21.2 | – | – | – | – | – | – | – | – | – | –
4 | Cc1ccc2c(c1)C(C)Cc1c(Cl)ncnc1N2C (stereo not given) | 8.1 | 67.9 | > 100 µM | 14.2 | > 100 | 13.3 | > 100 | 5.63 | 7.98 | 22.5 | 3.03 | 4.43 | 3.7 µM | 3.01 | 3.47 | 3.2 µM | 3.82 µM | 2.23 µM | 2.12 µM | 0.394
5 | COc1ccc(-n2cc(-c3cc(OC)c(OC)c(OC)c3)nc2SCc2ccccc2)cc1OC | > 100 | > 100 | > 100 µM | > 100 | > 100 | > 100 | > 100 | > 100 | > 100 | > 100 | > 100 | 50 | > 92.9 µM | 49.1 | 54.7 | > 100 µM | > 100 µM | > 100 µM | > 100 µM | 34.4
6 | Nc1c([N+](=O)[O-])cc2c3c(cccc13)CC2 | > 100 | > 100 | > 100 µM | > 100 | > 100 | > 100 | > 100 | > 100 | > 100 | > 100 | – | – | – | – | – | – | – | – | – | –
7 | CCCCCCCCCCCCOC1C(C(COC2OC(C3COC(C)(C)O3)C3OC(C)(C)OC23)NC(=O)NS(=O)(=O)c2ccccc2)OC2OC(C)(C)OC21 (stereo not given) | 9.57 | 9.77 | 15.2 µM | 16.3 | 16.1 | 18.5 | 7.49 | 21.5 | 31.5 | 31.6 | 3.29 | 3.14 | 4.22 µM | 4.05 | 2.57 | 5.14 µM | 2.34 µM | 4.6 µM | 5.15 µM | 11.4
8 | O=C1C=CC[C@H](/C=C/c2ccccc2)O1 | 34.2 | 13.1 | 16.6 µM | 13.9 | > 100 | 16 | > 50.2 | 14.8 | 17.8 | 4.69 | 6.57 | 1.88 | 4.04 µM | 1.72 | – | 1.39 µM | 9.5 µM | 1.81 µM | 4.06 µM | 0.394
9 | O=Cc1ccccc1B(O)O | > 100 | > 100 | > 100 µM | > 100 | > 100 | > 100 | 40 | > 100 | > 100 | > 100 | – | – | – | – | – | – | – | – | – | –
10 | Cc1cc(=O)[nH]c2cc3c(c4c(n3Cc3ccc(Cl)cc3Cl)CC(C)(C)CC4=O)c(O)c12 | > 100 | > 100 | > 100 µM | > 100 | > 100 | > 100 | > 100 | > 100 | > 100 | 59.8 | > 100 | 62.6 | > 100 µM | > 100 | > 100 | > 100 µM | 82.3 µM | 57.4 µM | > 100 µM | 24.6
11 | Cc1ccc2nc(-c3ccccc3)c(N=O)n2c1 | > 100 | > 100 | > 100 µM | > 100 | > 100 | > 100 | > 100 | > 100 | > 100 | > 100 | – | – | – | – | – | – | – | – | – | –
12 | Oc1[nH]c2c(Br)cccc2c1C1=Nc2ccccc2/C1=N/OCCN1CCCC1 | – | 2.77 | 2.12 µM and 3.8 µM | 1.78 | – | – | – | > 100 | > 100 | 3.64 | 2.21 | 1.09 | 0.414 µM and 0.379 µM | 0.448 | 0.424 | 1.49 µM and 0.542 µM | 0.741 µM and 1.12 µM | 1.58 µM and 1.91 µM | 0.708 µM and 0.501 µM | 1.14
13 | COc1cc(NC(=O)CSc2nc3ccc(C)cc3c(=O)n2Cc2ccccc2)cc(OC)c1OC | 10.6 | 24 | > 100 µM | > 100 | > 100 | > 100 | > 100 | > 100 | > 100 | 4.33 | 3.38 | 3.93 | 3.49 µM | 3.38 | > 100 | > 100 µM | > 100 µM | 9.55 µM | 29.9 µM | 1.82
14 | O=C(Nc1ccc2[nH]c(=S)sc2c1)Nc1ccccc1F | > 100 | > 100 | > 100 µM | > 100 | > 100 | > 100 | > 100 | > 100 | > 100 | > 100 | 26.7 | 57.5 | 37.4 µM | 37.7 | 28.6 | 43.1 µM | 26.7 µM | 23.1 µM | 24.7 µM | 22.9
15 | Cc1cc(Cc2cc(C)cc(C(C)(C)C)c2O)c(O)c(Cc2cc(C)cc(C(C)(C)C)c2O)c1 | 6.7 | 10.3 | 11.3 µM | 5.44 | 6.33 | 16.7 | 8.31 | 8.57 | 10 | 14.2 | – | – | – | – | – | – | – | – | – | –
